Literature values, collected in US10543256B2, “Stable pharmaceutical formulation comprising a reconstituted pulmonary surfactant composition” (CHIESI FARMACEUTICI S.P.A., priority 2016, dated 2020).

Conditions: at 25° C.

Question: For `Cl.NC(CO)(CO)CO` [TRIS, Tris(hydroxymethyl)aminomethane hydrochloride], which pKa is on record?
Answer: The pKa was 8.06.
